Laboratory results from PMC5458078, “Global mapping of CARM1 substrates defines enzyme specificity and substrate recognition” (Nature Communications, 2017).
Read-outs that look alike come from different tables or passages of the source.

Key:
MCF7 cells = test: Quantitative nanoLC-MS/MS (TMT) of ADMA-containing peptides, CARM1 KO vs parental; assay type: cell-based, human; set-up: Fold change KO/WT: scale not given here
MCF7 CARM1 KO cells = test: Quantitative MS of ADMA-containing peptides in MCF7 CARM1 KO cells expressing CARM1 28-608 or CARM1 140-608, and in CARM1 KO; assay type: cell-based, human
[1] = CARM1 KO vs wild type MCF7 cells, 3 biological replicates each
[2] = CARM1 140-608 versus WT, difference of mean log2 values
[3] = CARM1 KO versus WT, difference of mean log2 values
[4] = ADMA-containing peptide, CARM1 knockout (KO) vs wild type (WT) MCF7 cells, 6-plex TMT experiment #1, three biological replicates each, sheet "MCF7"
[5] = difference of log2 means, CARM1 140-608 vs WT
[6] = difference of log2 means, KO vs WT
[7] = MCF7 CARM1 knockout vs wild type, 3 biological replicates each, values are on log2 scale
[8] = MCF7, CARM1 KO vs WT, three biological replicates each
[9] = ratio on log2 scale, mean of 3 replicates
[10] = MCF7, CARM1 knockout vs wild type, n = 3 each
[11] = ADMA-containing peptide, MCF7, CARM1 knockout (KO1-3) vs wild type (WT1-3), TMT 6-plex experiment #1
[12] = log2 scale ratio, mean of n = 3
[13] = CARM1 140-608 versus WT, mean of three replicates (log2)
[14] = KO versus WT, mean of three replicates (log2)
[15] = CARM1 140-608 vs WT, mean of 3 replicates, log2
[16] = KO vs WT, mean of 3 replicates, log2
[17] = MCF7, CARM1 KO (KO1-KO3) vs wild type (WT1-WT3)
[18] = CARM1 140-608 vs WT, mean of 3 replicates (log2 scale)
[19] = KO vs WT, mean of 3 replicates (log2 scale)
[20] = mean, CARM1 140-608 versus WT (log2 scale)
[21] = mean, CARM1 KO versus WT (log2 scale)

## GrGALLQDICK
MCF7 cells; [1]
  Fold change KO/WT: 0.3016
MCF7 CARM1 KO cells; [2]
  CARM1 140-608/WT: 0.1138
MCF7 CARM1 KO cells; [3]
  KO/WT: -0.96

## TSGELGPFNNGASYPLQAGQPrLTK
MCF7 cells; [4]
  Fold change KO/WT: -4.512
MCF7 CARM1 KO cells; [5]
  CARM1 140-608/WT: -2.866
MCF7 CARM1 KO cells; [6]
  KO/WT: -4.63

## QSSATSSFGGLGGGSVrFGPGVAFrAPSIHGGSGGR
MCF7 cells; [7]
  Fold change KO/WT: -1.828
MCF7 CARM1 KO cells; [5]
  CARM1 140-608/WT: -1.331
MCF7 CARM1 KO cells; [6]
  KO/WT: -1.828

## LGRPIGALArGAIGGR
MCF7 cells; [8]
  Fold change KO/WT: 0.325
MCF7 CARM1 KO cells; [9]
  CARM1 140-608/WT: 0.09518
  KO/WT: 1.211

## APPVrYCIPGER
MCF7 cells; [10]
  Fold change KO/WT: -5.161
MCF7 CARM1 KO cells; [9]
  CARM1 140-608/WT: -3.736
  KO/WT: -5.161

## ATSVLPrYGPPCLFK
MCF7 cells; [11]
  Fold change KO/WT: -3.4878
MCF7 CARM1 KO cells; [12]
  CARM1 140-608/WT: -1.277
  KO/WT: -3.4878

## QMAVPSFTQQILCPKPVHVrPPMPPrYPAPYGER
MCF7 cells; [4]
  Fold change KO/WT: -2.943
MCF7 CARM1 KO cells; [13]
  CARM1 140-608/WT: 0.05331
MCF7 CARM1 KO cells; [14]
  KO/WT: -2.9202

## DVEAATGQDLGSSrYSGK
MCF7 cells; [1]
  Fold change KO/WT: 0.2995
MCF7 CARM1 KO cells; [2]
  CARM1 140-608/WT: -0.09015
MCF7 CARM1 KO cells; [3]
  KO/WT: -0.4514

## FGDMSYSIrHSISMPAMR
MCF7 cells; [11]
  Fold change KO/WT: -3.258
MCF7 CARM1 KO cells; [12]
  CARM1 140-608/WT: -2.806
  KO/WT: -3.258

## SPFLGSArPrLR
MCF7 cells; [11]
  Fold change KO/WT: -3.721
MCF7 CARM1 KO cells
  CARM1 140-608/WT: -0.6148
  KO/WT: -3.721

## AGSQGGrGGGAQAAAR
MCF7 cells; [8]
  Fold change KO/WT: 0.4231
MCF7 CARM1 KO cells; [15]
  CARM1 140-608/WT: 0.1432
MCF7 CARM1 KO cells; [16]
  KO/WT: 0.7684

## DQPGTSAVPNLASVGTrLPPPLPQNLLYTVSER
MCF7 cells; [17]
  Fold change KO/WT: -4.596
MCF7 CARM1 KO cells; [13]
  CARM1 140-608/WT: -1.1192
MCF7 CARM1 KO cells; [14]
  KO/WT: -4.635

## QLVGGSQAFYQrAPYPGSLPLQQQQQQLWQQQQATAATSMrFAMSARFPSTPGPELGR
MCF7 cells; [7]
  Fold change KO/WT: -2.512
MCF7 CARM1 KO cells; [5]
  CARM1 140-608/WT: -1.475
MCF7 CARM1 KO cells; [6]
  KO/WT: -2.512

## LFHLPEYTWrLPCGGVR
MCF7 cells; [11]
  Fold change KO/WT: -2.1298
MCF7 CARM1 KO cells; [12]
  CARM1 140-608/WT: 0.09104
  KO/WT: -2.175

## LGHDPYrLGHDAYrLGQDPYrLGHDPYR
MCF7 cells; [11]
  Fold change KO/WT: -1.602
MCF7 CARM1 KO cells
  CARM1 140-608/WT: -1.775
  KO/WT: -1.602

## QGQPTPLVIQQPPKPGALIrPPQVTLTQTPMVALrQPHNR
MCF7 cells; [11]
  Fold change KO/WT: -2.284
MCF7 CARM1 KO cells; [12]
  CARM1 140-608/WT: -1.328
  KO/WT: -2.284

## SPFLGSArPrLrFSPYQIPVTIPPSTSLLTTGLASEGSK
MCF7 cells; [11]
  Fold change KO/WT: -3.915
MCF7 CARM1 KO cells; [12]
  CARM1 140-608/WT: -2.053
  KO/WT: -3.915

## IPYPAGTLPNPLLPHPLHENEVLrHQLFAAPYR
MCF7 cells; [8]
  Fold change KO/WT: -1.146
MCF7 CARM1 KO cells; [15]
  CARM1 140-608/WT: -0.5059
MCF7 CARM1 KO cells; [16]
  KO/WT: -1.312

## VIGTAVArYNFAAR
MCF7 cells; [1]
  Fold change KO/WT: -2.89
MCF7 CARM1 KO cells; [2]
  CARM1 140-608/WT: -1.8723
MCF7 CARM1 KO cells; [3]
  KO/WT: -2.89

## QLPNAGPGAPPALGFSrFPAGArYAGAGGLER
MCF7 cells; [8]
  Fold change KO/WT: -4.1849
MCF7 CARM1 KO cells; [15]
  CARM1 140-608/WT: -2.691
MCF7 CARM1 KO cells; [16]
  KO/WT: -4.1849

## LGHDAYrLGQDPYR
MCF7 cells; [11]
  Fold change KO/WT: -1.081
MCF7 CARM1 KO cells
  CARM1 140-608/WT: -1.007
  KO/WT: -1.081

## KVPQPCSSATLNrLTVPrYSIPTGDPPPYPEIASQLAQGR
MCF7 cells; [1]
  Fold change KO/WT: -4.368
MCF7 CARM1 KO cells; [2]
  CARM1 140-608/WT: -2.332
MCF7 CARM1 KO cells; [3]
  KO/WT: -4.368

## LGHDAYrLGQDPYrLGHDPYR
MCF7 cells; [11]
  Fold change KO/WT: -1.784
MCF7 CARM1 KO cells
  CARM1 140-608/WT: -1.958
  KO/WT: -1.784

## QGSIGLYTQNQPLPAGGPrVDPYrPVrLPMQK
MCF7 cells; [4]
  Fold change KO/WT: -2.292
MCF7 CARM1 KO cells; [5]
  CARM1 140-608/WT: -2.266
MCF7 CARM1 KO cells; [6]
  KO/WT: -3.357

## AGGLLGTGSGLNLrMAGPQGLDLAPILR
MCF7 cells; [8]
  Fold change KO/WT: -3.029
MCF7 CARM1 KO cells; [9]
  CARM1 140-608/WT: -0.05646
  KO/WT: -2.802

## QrGVSHAMGGrGGINR
MCF7 cells; [11]
  Fold change KO/WT: 0.102
MCF7 CARM1 KO cells; [12]
  CARM1 140-608/WT: 0.2049
  KO/WT: 0.2554

## QAPrDGLTPVPPLAPAPrPPSSGLPAVLNPrPTLTPGrLPTPTLGTArAPMPTPTLVrPLLK
MCF7 cells; [11]
  Fold change KO/WT: -4.977
MCF7 CARM1 KO cells; [12]
  CARM1 140-608/WT: -2.613
  KO/WT: -4.977

## EPFLSrDPFHSLK
MCF7 cells; [17]
  Fold change KO/WT: 2.308
MCF7 CARM1 KO cells; [18]
  CARM1 140-608/WT: 0.7405
MCF7 CARM1 KO cells; [19]
  KO/WT: 1.534

## GMYNQrYHCPVPK
MCF7 cells; [11]
  Fold change KO/WT: -2.857
MCF7 CARM1 KO cells
  CARM1 140-608/WT: -2.175
  KO/WT: -2.857

## KPLGTAPHCPrLPLR
MCF7 cells; [10]
  Fold change KO/WT: -3.016
MCF7 CARM1 KO cells; [20]
  CARM1 140-608/WT: -2.281
MCF7 CARM1 KO cells; [21]
  KO/WT: -3.016

## SVVESSAPGANNLQVNALVArLPLLLPrAPR
MCF7 cells; [17]
  Fold change KO/WT: -2.886
MCF7 CARM1 KO cells; [18]
  CARM1 140-608/WT: -1.353
MCF7 CARM1 KO cells; [19]
  KO/WT: -2.886

## APVFPGrGSYSNR
MCF7 cells; [7]
  Fold change KO/WT: -0.1545
MCF7 CARM1 KO cells; [20]
  CARM1 140-608/WT: 0.1704
MCF7 CARM1 KO cells; [21]
  KO/WT: 0.1127

## EPLVATNLPGrGQLQK
MCF7 cells; [11]
  Fold change KO/WT: -0.7768
MCF7 CARM1 KO cells; [12]
  CARM1 140-608/WT: -0.7114
  KO/WT: -0.7768
